Assay results taken from patent US6410558B1, “Fungicides for the control of take-all disease of plants” (Monsanto Technology LLC, priority 1991, dated 2002).

Assays:
[1] = system: Gaeumannomyces graminis var. tritici (Ggt); test: In vitro Assay: mycelial growth of Ggt on minimal media agar plates containing test compound; type: cell-based; conditions: Gaeumannomyces graminis, dark, 19-20° C., 4 to 5 days, diameter of mycelial growth; for inhibition at 0.1 ppm: 0.1 ppm in minimal media agar, read-out: In vitro (ppm) 0.1, Percent Inhibition; for inhibition at 1 ppm: 1 ppm in minimal media agar, read-out: In vitro (ppm) 1, Percent Inhibition; for inhibition at 10 ppm: 10 ppm in minimal media agar, read-out: In vitro (ppm) 10, Percent Inhibition
Summary of the method: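 Ggt mycelial diameter read after 4 to 5 days in darkness at 19-20° C, from three 4-mm plugs placed on Czapek Dox minimal agar containing test compound delivered in acetone. Inhibition expressed as percent versus untreated plates, plug size (4 mm) subtracted from both.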

[2] = system: Ggt; test: In vivo Assay: control of Ggt on wheat grown in pots of Ggt-infested soil, root disease rating; parameters: species or system Gaeumannomyces graminis var. tritici; conditions: Gaeumannomyces graminis, 672 h; 0.5 mg active ingredient per pot; 'Bergen' or 'Anza' wheat in Ggt-infested soil; after four weeks; vs untreated control; read-out: In vivo, percent disease control
Summary of the method: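 Wheat ('Bergen' or 'Anza') seeds in soil infested with Ggt-colonised oats (4% v/v) treated at 0.5 mg active ingredient per pot in acetone/water with Tween 20; five pots per treatment. After four weeks, seminal roots rated 0–5; trimmed mean of three replicates converted to percent disease control versus untreated.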

Compound | inhibition at 0.1 ppm [1] | inhibition at 1 ppm [1] | inhibition at 10 ppm [1] | pest or weed control at 0.5 mg/pot [2]
C[Si](C)(C)c1cccc(Cl)c1C(=O)N1CCOCC1 [Example 132, N-[2-Chloro-6-(trimethylsilyl)benzoyl]-morpholine] | 54% | 15% | 46% | < 0%
CN1CCN(C(=O)c2c(Cl)cccc2[Si](C)(C)C)CC1 [Example 133, N-[2-Chloro-6-(trimethylsilyl)benzoyl]-4-methylpiperazine] | 13% | 3% | 18% | < 0%
C[Si](C)(C)c1cccc(Cl)c1C(=O)N1CCCCC1 [Example 134, N-[2-Chloro-6-(trimethylsilyl)benzoyl]-piperidine] | < 0% | 3% | 39% | < 0%
C[Si](C)(C)c1cccc(Cl)c1C(=O)NCC1CC1 [Example 150, 2-Chloro-N-(cyclopropylmethyl)-6-(trimethylsilyl)benzamide] | 34% | 74% | 83% | 96%
CC[C@@H](C)NC(=O)c1c(Cl)cccc1[Si](C)(C)C [Example 151, 2-Chloro-N-(1-methylpropyl)-6-(trimethylsilyl)benzamide, (r)-] | < 0% | 71% | 57% | 97%
CC[C@H](C)NC(=O)c1c(Cl)cccc1[Si](C)(C)C [Example 152, 2-Chloro-N-(1-methylpropyl)-6-(trimethylsilyl)benzamide, (s)-] | < 0% | 71% | 86% | 54%
C[Si](C)(C)c1cccc(Cl)c1C(=O)NCCBr [Example 153, N-(2-Bromoethyl)-2-chloro-6-(trimethylsilyl)benzamide] | < 0% | 88% | 91% | 29%
C[Si](C)(C)c1cccc(Cl)c1C(=O)NCCF [Example 155, 2-Chloro-N-(2-fluoroethyl)-6-(trimethylsilyl)benzamide] | < 0% | 64% | 90% | 93%
CCOc1ccccc1NC(=O)c1c(Cl)cccc1[Si](C)(C)C [Example 157, 2-Chloro-N-(2-ethoxyphenyl)-6-(trimethylsilyl)benzamide] | 7% | 23% | 91% | 0%
COc1ccccc1NC(=O)c1c(Cl)cccc1[Si](C)(C)C [Example 159, 2-Chloro-N-(2-methoxyphenyl)-6-(trimethylsilyl)benzamide] | 12% | 55% | 100% | 0%
C[Si](C)(C)c1cccc(Cl)c1C(=O)Nc1ccccc1[N+](=O)[O-] [Example 160, 2-Chloro-N-(2-nitrophenyl)-6-(trimethylsilyl)benzamide] | 17% | 63% | 88% | 5%
C=CCNC(=O)NC(=O)c1c(Cl)cccc1[Si](C)(C)C [Example 165, 2-Chloro-N-[(2-propenylamino)carbonyl]-6-(trimethylsilyl)benzamide] | < 0% | 76% | 100% | 63%
CCN(CC)C(=O)c1c(Cl)cccc1C[Si](C)(C)C [Example 166, 2-Chloro-N,N-diethyl-6-[(trimethylsilyl)methyl]benzamide] | 4% | < 0% | 73% | 15%
CC(C)N(O)C(=O)c1c(Cl)cccc1[Si](C)(C)C [Example 167, 2-Chloro-N-hydroxy-N-(1-methylethyl)-6-(trimethylsilyl)benzamide] | 46% | 86% | 96% | 93%
CCN(SC)C(=O)c1c(Cl)cccc1[Si](C)(C)C [Example 172, 2-Chloro-N-ethyl-N-(methylthio)-6-(trimethylsilyl)benzamide] | 94% | 100% | 100% | 99%
CSNC(=O)c1c(Cl)cccc1[Si](C)(C)C [Example 174, 2-Chloro-N-(methylthio)-6-(trimethylsilyl)benzamide] | 12% | 65% |  | 0%

Compound | inhibition at 0.1 ppm [1] | inhibition at 1 ppm [1] | inhibition at 10 ppm [1] | pest or weed control at 0.5 mg/pot [2]
C=CC[Si](C)(C)c1cccc(Cl)c1C(=O)NCC [Example 179, 2-Chloro-6-(dimethyl-2-propenylsilyl)-N-ethylbenzamide] | 85% | 88% | 91% | 97%
CCNC(=O)c1c(Cl)cccc1[Si](C)(C)C(C)C [Example 180, 2-Chloro-6-[dimethyl(1-methylethyl)silyl]-N-ethylbenzamide] | 85% | 82% | 90% | 96%
CCN(C(=O)c1ccccc1[Si](C)(C)C)C(OC)C(C)(C)C (stereo not drawn) [Example 187, N-Ethyl-N-(1-methoxy-2,2-dimethylpropyl)-2-(trimethylsilyl)benzamide] | 13% | 27% | 97% | 24%
CCNC(=O)c1ccccc1N(C)C(C)(C)C [Example 188, 2-[(1,1-Dimethylethyl)methylamino]-N-ethylbenzamide] | 29% | 71% | 100% | 15%
CCNC(=O)c1c(C)cccc1N(C)C(C)(C)C [Example 191, N-Ethyl-2-[(1,1-dimethylethyl)methylamino]-6-methylbenzamide] | 60% | 88% | 88% | 88%
CCNC(=O)c1c(Cl)cccc1NC(C)(C)C [Example 192, 2-Chloro-6-[(1,1-dimethylethyl)amino]-N-ethylbenzamide] | 86% | 95% | 95% | 99%
CCNC(=O)c1c(Cl)ccc(Cl)c1[Si](C)(C)C [Example 200, 3,6-Dichloro-N-ethyl-2-(trimethylsilyl)benzamide] | 92% | 100% | 100% | 65%
CCN(C(=O)c1c(Cl)cccc1[Si](C)(C)C)C(OC)C(C)(C)C (stereo not drawn) [Example 201, 2-Chloro-N-ethyl-N-(1-methoxy-2,2-dimethylpropyl)-6-(trimethylsilyl)benzamide] | 31% | 50% | 100% | 65%
C=C[Si](C)(c1ccccc1)c1cccc(Cl)c1C(=O)NCC (stereo not drawn) [Example 202, 2-Chloro-6-(ethenylmethylphenylsilyl)-N-ethylbenzamide] | 33% | 58% | 88% | 3%
C=CCONC(=O)c1c([Si](C)(C)C)ccc(Cl)c1Cl [Example 204, 2,3-Dichloro-N-(2-propenyloxy)-6-(trimethylsilyl)benzamide] | < 0% | < 0% | 74% | 43%
CCNC(=O)c1c(Cl)cccc1[Si](C)(C)CBr [Example 210, 2-[(Bromomethyl)dimethylsilyl]-6-chloro-N-ethyl-benzamide] | 85% | 88% | 94% | 74%
CCN(C(=O)OC(C)(C)C)C(=O)c1c(Cl)cccc1[Si](C)(C)C [Example 211, [2-Chloro-6-(trimethylsilyl)benzoyl]ethylcarbamic acid, 1,1-dimethylethyl ester] | < 0% | 82% | 90% | 96%
CCNC(=O)c1c(Cl)cccc1[Si](C)(C)CC [Example 212, 2-Chloro-N-ethyl-6-(ethyldimethylsilyl)benzamide] | 77% | 54% | 90% | 96%
CCNC(=O)c1cc(Cl)ccc1[Si](C)(C)C [Example 213, 5-Chloro-N-ethyl-2-(trimethylsilyl)benzamide] | 9% | 82% | 79% | 87%
CCNC(=O)c1c(Cl)ccc([N+](=O)[O-])c1[Si](C)(C)C [Example 215, 6-Chloro-N-ethyl-3-nitro-2-(trimethylsilyl)benzamide] | 46% | 96% | 100% | 57%
